Earlier results as cited in patent US6537523B1, “Diagnosis and treatment of cancer having clonal macrophage involvement” (The Regents of the University of California, priority 1994, dated 2003).

System: HIV antigens in human blood cells including macrophages

For Trichosanthin, the “expression of HIV antigens” value is given as “inhibit expression of HIV antigens”.
